In brackets after ≈: the same amount, converted by molar mass. Where two headings read alike, the source gives them in different places. No end group written: not given here.
Experiments:
[1] = test system: Candida glabrata ATCC15126; assay: Antimicrobial assays II, NCCLS broth microdilution MIC; type: cell-based; conditions: Table 8; in µg/mL
[2] = test system: Pseudomonas aeruginosa H187; type: cell-based; conditions: Table 8; in µg/mL
[3] = test system: S. typhimurium 14028S; type: cell-based, Salmonella typhimurium; conditions: mean of three; 16 to 20 hours at 35° C.; in µg/mL
[4] = test system: WI38; conditions: MTT, 24 hours with peptide; for WI38 LD50: normal fibroblast line
[5] = test system: P. aeruginosa H374; type: cell-based, Pseudomonas aeruginosa; conditions: mean of three; 16 to 20 hours at 35° C.
[6] = test system: BMKC; assay: Anti-cancer assay, MTT, LD50; type: cell-based; conditions: BMKC cloned melanoma line, 24 hours with peptide
Excerpt: (§1) Numbers are LD50 values (μg/mL).

[7] = test system: HeLaS3; assay: Anti-cancer assay, MTT, LD50; type: cell-based; conditions: 24 hours with peptide, cervical carcinoma
Excerpt: as §1

[8] = test system: PC3; assay: Anti-cancer assay, MTT, LD50; type: cell-based; conditions: 24 hours with peptide, prostate adenocarcinoma
Excerpt: as §1

[9] = test system: MCF7; assay: Anti-cancer assay, MTT, LD50; type: cell-based; conditions: MCF7 breast adenocarcinoma line, MTT, 24 hours with peptide
Excerpt: as §1

[10] = test system: H1299; assay: Anti-cancer assay, MTT, LD50; type: cell-based; conditions: 24 hours with peptide, lung large cell carcinoma
Excerpt: as §1

[11] = test system: SW480; assay: Anti-cancer assay, MTT, LD50; type: cell-based; conditions: SW480 colon adenocarcinoma line, 24 hours with peptide
Excerpt: as §1

[12] = test system: P. aeruginosa H374; type: cell-based, Pseudomonas aeruginosa; conditions: for MIC Cm-comb.: MIC of chloramphenicol with peptide at ¼ MIC; for MIC Nal-comb.: MIC of nalidixic acid with peptide at ¼ MIC; for FIC Index: 0.5 or less = synergy
How it was run: (§2)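 FIC index, computed as 0.25 plus the ratio of combination to single-agent antibiotic MIC, defines synergy when 0.5 or below. Peptide fixed at one quarter MIC while chloramphenicol or nalidixic acid was serially diluted two-fold; antibiotic-alone MICs served as baselines.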

[13] = test system: P. aeruginosa H774; type: cell-based, Pseudomonas aeruginosa; conditions: P. aeruginosa H744; nalidixic acid + peptide at ¼ MIC; 0.5 or less = synergy
How it was run: as §2

[14] = test system: P. aeruginosa; type: cell-based, Pseudomonas aeruginosa; conditions: P. aeruginosa H744; MIC of nalidixic acid with peptide at ¼ MIC
How it was run: as §2

[15] = test system: E. coli UB1005; type: cell-based, Escherichia coli; conditions: mean of three; 16 to 20 hours at 35° C.; in µg/mL
[16] = test system: Pseudomonas aeruginosa ATCC 9027; assay: Antimicrobial assay I, MIC by OD measurement; type: cell-based; conditions: 37° C. for 24 hours, absorbance 620 nm
[17] = test system: Staphylococcus aureus ATCC 6538; assay: Antimicrobial assay I, MIC by OD measurement; type: cell-based; conditions: 37° C. for 24 hours, absorbance 620 nm
[18] = test system: yeast (Saccharomyces cerevisiae); assay: Antimicrobial assay I, yeast assay in RPMI 1640; type: cell-based; conditions: RPMI 1640 media
[19] = test system: human red blood cells (RBC); assay: in vitro; type: cell-based; conditions: hemolytic assay, concentration at 50% hemolysis, 1 hour at 37° C.
[20] = in vitro; conditions: human, WI38 normal lung fibroblast cells, LD50 WI38, WI38 normal lung fibroblast line, MTT, 24 hours with peptide
[21] = chloramphenicol + peptide at ¼ MIC
[22] = nalidixic acid + peptide at ¼ MIC, FIC=0.25+MIC comb/MIC alone

Compound | MIC C. glabrata ATCC15126 [1] | MIC P. aeruginosa H187 [2] | S. typhimurium 14028S MIC [3] | WI38 LD50 [4] | P. aeruginosa H374 MIC [5] [µg/mL] | LD50 BMKC [6] | HeLaS3 LD50 [7] | PC3 LD50 [8] | LD50 MCF7 [9] | H1299 LD50 [10] | LD50 SW480 [11] | MIC Cm-comb. [12] [µg/mL] | MIC Nal-comb. [12] [µg/mL] | FIC Index [12, 21] | FIC Index [12, 22] | FIC Index [13] | MIC Nal-comb. [14] [µg/mL] | E. coli UB1005 MIC [15] | LD50 [19] | CC50 at 24 h [20] [µg/mL] | other results
FAKKLAKLAKKLAKAL-NH2 [P109 (73)] | 128 | 64 |  |  |  |  |  |  |  |  |  |  |  |  |  |  |  |  |  |  | 
FAKKLAKKLKKLAKLALAL-OH [P29 (14)] | 128 | 32 |  |  |  |  |  |  |  |  |  |  |  |  |  |  |  |  |  |  | 
FAKKLAKLAKKLAKAL-NH2 [P109] |  |  | 32 | > (> indicates greater than 1000) | 8 | > (> indicates greater than 1000) | > (> indicates greater than 1000) | > (> indicates greater than 1000) | > (> indicates greater than 1000) | > (> indicates greater than 1000) | > (> indicates greater than 1000) | 16 | 2500 | 1.25 | 0.75 | 1.25 | 624 | 16 | > (> indicates greater than 1000) |  | LD50 WI38 ([4]; WI38 normal lung fibroblast line): > (> indicates greater than 1000); paerug9027 (MIC) [16]: 200 µg/mL; staph6538 (MIC) [17]: > (> indicates greater than 200 μg/mL); yeast (MIC or MFC) [18]: 200 µg/mL
CC(C)C[C@H](NC(=O)[C@H](C)NC(=O)[C@H](CCCCN)NC(=O)[C@H](CC(C)C)NC(=O)[C@H](C)NC(=O)[C@H](CC(C)C)NC(=O)[C@H](C)NC(=O)[C@H](CC(C)C)NC(=O)[C@H](CCCCN)NC(=O)[C@H](C)NC(=O)[C@H](CC(C)C)NC(=O)[C@H](CCCCN)NC(=O)[C@H](CCCCN)NC(=O)[C@H](C)NC(=O)[C@H](CC(C)C)NC(=O)[C@H](CCCCN)NC(=O)[C@H](CCCCN)NC(=O)[C@H](CC(C)C)NC(=O)[C@H](CCCCN)NC(=O)[C@H](CCCCN)NC(=O)[C@H](C)NC(=O)[C@H](CC(C)C)NC(=O)[C@H](CCCCN)NC(=O)[C@H](CCCCN)NC(=O)[C@H](C)NC(=O)[C@@H](N)Cc1ccccc1)C(=O)N[C@@H](C)C(=O)N[C@@H](CC(C)C)C(=O)N[C@@H](CCCCN)C(=O)N[C@@H](C)C(=O)O [P100, reference compound] |  |  | 4 |  | 8 | 120 µg/mL |  |  | 175 µg/mL |  | 82 µg/mL | 16 | 2500 | 1.25 | 0.75 | 1.25 | 624 | 0.5 | > (> indicates greater than 1000) | 95 (≈ 29.4 µM) | 
FAKKLLAKALKL-NH2 [P110] |  |  | 32 | 45 µg/mL | 8 | 400 µg/mL | 540 µg/mL | > (> indicates greater than 1000) | 180 µg/mL | 95 µg/mL | 325 µg/mL | 16 | 2500 | 1.25 | 0.75 | 1.25 | 624 | 16 | > (> indicates greater than 1000) | 45 | paerug9027 (MIC) [16]: 200 µg/mL; staph6538 (MIC) [17]: > (> indicates greater than 200 μg/mL); yeast (MIC or MFC) [18]: 200 µg/mL
FAKKLLAKALKL-NH2 [P110 (74)] | 128 | 64 |  |  |  |  |  |  |  |  |  |  |  |  |  |  |  |  |  |  | 
CC(C)C[C@H](NC(=O)[C@H](C)NC(=O)[C@H](CCCCN)NC(=O)[C@H](CC(C)C)NC(=O)[C@H](C)NC(=O)[C@H](CC(C)C)NC(=O)[C@H](C)NC(=O)[C@H](CC(C)C)NC(=O)[C@H](CCCCN)NC(=O)[C@H](C)NC(=O)[C@H](CC(C)C)NC(=O)[C@H](CCCCN)NC(=O)[C@H](CCCCN)NC(=O)[C@H](C)NC(=O)[C@H](CC(C)C)NC(=O)[C@H](CCCCN)NC(=O)[C@H](CCCCN)NC(=O)[C@H](CC(C)C)NC(=O)[C@H](CCCCN)NC(=O)[C@H](CCCCN)NC(=O)[C@H](C)NC(=O)[C@H](CC(C)C)NC(=O)[C@H](CCCCN)NC(=O)[C@H](CCCCN)NC(=O)[C@H](C)NC(=O)[C@@H](N)Cc1ccccc1)C(=O)N[C@@H](C)C(=O)N[C@@H](CC(C)C)C(=O)N[C@@H](CCCCN)C(=O)N[C@@H](C)C(=O)O [P100 (163)] | >128 | 32 |  |  |  |  |  |  |  |  |  |  |  |  |  |  |  |  |  |  | 
LPKWKVFKKIEKVGRNIRNGIVKAGPAIAVLGEAKALG-NH2 [P306, reference compound] |  |  | 4 | 320 µg/mL | 8 | 170 µg/mL | 250 µg/mL | 370 µg/mL | 50 µg/mL | 120 µg/mL | 240 µg/mL | 8 | 5000 | 0.75 | 1.25 | 0.75 | 312 | 4 | > (> indicates greater than 1000) | 320 | 
FAKKLAKLAKKALAL-NH2 [P39, FAKKLAKLAKKALAL-NH2] |  |  | 16 | 300 µg/mL | 16 | 510 µg/mL | 620 µg/mL | 310 µg/mL | 130 µg/mL | 420 µg/mL | 435 µg/mL | 8 | 1250 | 0.75 | 0.5 | 1.25 | 624 | 4 | > (> indicates greater than 1000) | 300 | paerug9027 (MIC) [16]: 25 µg/mL; staph6538 (MIC) [17]: 100 µg/mL; yeast (MIC or MFC) [18]: 100 µg/mL

— patent US20050209157A1, “Short bioactive peptides and methods for their use” (priority 2001, published 2005)
